# Columns and labels:
# PVA-MV@CB[8] = assay: ITC second guest binding to PVA-MV in the presence of CB[8]; conditions: 25° C., 10 mM PBS buffer pH 7.0
# Experimental: ITC titration experiments were carried out on a VP-ITC from Microcal Inc. at 25° C. in 10 mM sodium phosphate buffer (pH=7). In a typical experiment, the host was in the sample cell at a concentration of 0.1 mM, and the guest was in the syringe at a 10 fold higher concentration. In the case of functional polymers, the concentration used is determined from the concentration of functional monomer units in solution and not the concentration of polymer. A titration consisted of 29 consecutive injections of 2-10 mL with at least 300 s intervals between injections. The first data point was removed from the data set prior to curve fitting. Heats of dilution were checked by titration well beyond saturation or by titration of the guest into a buffer solution and subtracted from the normalized enthalpies, but relatively small in all cases. The data were analyzed with Origin 7.0 software, using the one set of sites model.
# Isothermal titration calorimetry (ITC) was used for quantitative investigation of the respective binding thermodynamics for the HEC-Np and PVA-MV with CB[8]
# [1] = system: L929 mouse broblast cells; conditions: 1 ppm; cited from earlier work
Molecule,Ka (PVA-MV@CB[8]),cytotoxic response [1]
"Oc1ccc2ccccc2c1 [NpOH, 2-naphthol]",(1.10 ± 0.03) × 10^5 M^−1,–
dibutyltin dilaurate [TDL],–,does not elicit a cytotoxic response
